Data taken from ChEMBL document CHEMBL1133958, “Derivatives of (2R,3R,4S)-2-aminomethylpyrrolidine-3,4-diol are selective alpha-mannosidase inhibitors” (Bioorg Med Chem Lett, 2001).
Activity calls are given as the source filed them. The rule behind the calls is not given here.

Key:
[1] = biological target: T1, Alpha-glucosidase (Oryza sativa Japonica Group) (UniProt Q9LGC6); test: Percentage inhibition of Alpha-glucosidase from Rice (maltase) at 1 mM; […]
T1 sequence (whole entry): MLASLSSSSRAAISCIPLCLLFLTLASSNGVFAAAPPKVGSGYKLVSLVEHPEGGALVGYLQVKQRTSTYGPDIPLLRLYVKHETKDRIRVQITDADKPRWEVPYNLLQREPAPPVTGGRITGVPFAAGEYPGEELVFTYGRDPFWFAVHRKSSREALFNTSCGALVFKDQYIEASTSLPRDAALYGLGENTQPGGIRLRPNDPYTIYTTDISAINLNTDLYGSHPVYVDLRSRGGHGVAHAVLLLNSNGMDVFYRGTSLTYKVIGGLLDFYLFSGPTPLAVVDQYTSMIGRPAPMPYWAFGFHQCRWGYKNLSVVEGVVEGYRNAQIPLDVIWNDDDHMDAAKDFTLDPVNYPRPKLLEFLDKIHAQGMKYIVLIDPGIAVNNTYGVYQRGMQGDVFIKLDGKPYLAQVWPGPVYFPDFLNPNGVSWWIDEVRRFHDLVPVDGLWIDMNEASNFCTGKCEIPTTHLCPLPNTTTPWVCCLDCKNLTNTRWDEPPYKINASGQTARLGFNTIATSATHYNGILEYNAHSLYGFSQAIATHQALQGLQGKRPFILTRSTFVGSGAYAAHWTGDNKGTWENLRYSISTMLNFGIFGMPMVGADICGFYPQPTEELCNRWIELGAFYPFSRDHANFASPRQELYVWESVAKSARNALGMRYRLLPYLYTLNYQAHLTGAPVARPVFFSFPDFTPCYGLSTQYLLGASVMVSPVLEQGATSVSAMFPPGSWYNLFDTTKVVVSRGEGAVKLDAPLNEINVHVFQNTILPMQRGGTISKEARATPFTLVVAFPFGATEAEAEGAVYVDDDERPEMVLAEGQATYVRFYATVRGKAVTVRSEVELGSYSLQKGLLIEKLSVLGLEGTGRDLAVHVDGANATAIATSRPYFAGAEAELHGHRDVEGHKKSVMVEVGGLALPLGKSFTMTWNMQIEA

[2] = test system: Saccharomyces cerevisiae; test: Percentage inhibition of Alpha-glucosidase from Baker yeast (isomaltase) at 1 mM
[3] = test system: Saccharomyces cerevisiae; test: Percentage inhibition of Alpha-glucosidase from Yeast (maltase) at 1 mM; […]
[4] = biological target: Glucoamylase (Aspergillus niger) (UniProt P69328); test: Percentage inhibition of Alpha-glucosidase from Aspergillus niger (amyloglucosidase) at 1 mM
[5] = biological target: Beta-glucosidase A (Caldicellulosiruptor saccharolyticus) (UniProt P10482); test: Percentage inhibition of Beta-Glucosidase from Caldocellum saccharol. at 1 mM; No inhibition
[6] = biological target: T2, Glucoamylase 1 (Rhizopus oryzae) (UniProt P07683); test: Percentage inhibition of Alpha-glucosidase from Rhizopus mold (amyloglucosidase) at 1 mM concentration; conditions: Rhizopus arrhizus
T2 sequence (whole entry): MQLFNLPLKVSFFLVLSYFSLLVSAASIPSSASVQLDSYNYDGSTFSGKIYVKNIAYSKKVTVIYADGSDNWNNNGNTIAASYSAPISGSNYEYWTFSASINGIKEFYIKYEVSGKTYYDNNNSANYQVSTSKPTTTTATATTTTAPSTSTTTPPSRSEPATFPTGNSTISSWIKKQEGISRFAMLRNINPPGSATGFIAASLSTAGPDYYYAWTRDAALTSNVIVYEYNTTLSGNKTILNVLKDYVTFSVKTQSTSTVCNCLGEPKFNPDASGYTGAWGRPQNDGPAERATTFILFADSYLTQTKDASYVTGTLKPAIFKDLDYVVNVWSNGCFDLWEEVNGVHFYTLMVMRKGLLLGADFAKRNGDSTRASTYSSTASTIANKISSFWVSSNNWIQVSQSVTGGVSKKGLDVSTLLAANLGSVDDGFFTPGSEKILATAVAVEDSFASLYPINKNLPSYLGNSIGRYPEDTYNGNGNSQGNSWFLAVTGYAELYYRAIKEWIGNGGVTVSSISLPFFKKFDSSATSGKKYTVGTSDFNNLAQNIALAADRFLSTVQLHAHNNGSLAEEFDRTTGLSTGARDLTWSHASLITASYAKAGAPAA

[7] = biological target: Beta-galactosidase (Escherichia coli K-12) (UniProt P00722); test: Percentage inhibition of Beta-galactosidase from Escherichia coli at 1 mM concentration
[8] = Inhibitory activity towards Beta-galactosidase from Aspergillus oryzae
[9] = Percentage inhibition of Beta-galactosidase from Aspergillus oryzae at 1 mM
[10] = biological target: T3, Beta-galactosidase (Bos taurus) (UniProt Q58D55); test: Percentage inhibition of Beta-galactosidase from Bovine liver at 1 mM concentration
T3 sequence (whole entry): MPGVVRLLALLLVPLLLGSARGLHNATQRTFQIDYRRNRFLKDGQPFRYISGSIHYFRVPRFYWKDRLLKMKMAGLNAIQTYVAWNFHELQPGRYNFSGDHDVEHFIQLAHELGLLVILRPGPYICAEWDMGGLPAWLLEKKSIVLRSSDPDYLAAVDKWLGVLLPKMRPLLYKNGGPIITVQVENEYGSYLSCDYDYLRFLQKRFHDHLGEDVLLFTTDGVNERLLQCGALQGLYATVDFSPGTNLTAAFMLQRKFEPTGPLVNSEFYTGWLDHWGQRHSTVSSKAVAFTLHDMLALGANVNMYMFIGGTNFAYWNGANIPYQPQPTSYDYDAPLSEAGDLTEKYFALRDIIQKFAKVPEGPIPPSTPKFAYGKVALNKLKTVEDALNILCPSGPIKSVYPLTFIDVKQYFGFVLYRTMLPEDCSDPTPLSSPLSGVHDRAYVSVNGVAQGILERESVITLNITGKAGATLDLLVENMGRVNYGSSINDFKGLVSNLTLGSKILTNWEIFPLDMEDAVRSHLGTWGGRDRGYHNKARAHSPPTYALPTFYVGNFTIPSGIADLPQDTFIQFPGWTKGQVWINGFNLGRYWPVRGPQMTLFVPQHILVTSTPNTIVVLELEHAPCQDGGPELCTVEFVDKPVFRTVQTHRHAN

[11] = biological target: T4, Beta-galactosidase (Aspergillus niger) (UniProt P29853); test: Percentage inhibition of Beta-galactosidase from Aspergillus niger at 1 mM concentration
T4 sequence (whole entry): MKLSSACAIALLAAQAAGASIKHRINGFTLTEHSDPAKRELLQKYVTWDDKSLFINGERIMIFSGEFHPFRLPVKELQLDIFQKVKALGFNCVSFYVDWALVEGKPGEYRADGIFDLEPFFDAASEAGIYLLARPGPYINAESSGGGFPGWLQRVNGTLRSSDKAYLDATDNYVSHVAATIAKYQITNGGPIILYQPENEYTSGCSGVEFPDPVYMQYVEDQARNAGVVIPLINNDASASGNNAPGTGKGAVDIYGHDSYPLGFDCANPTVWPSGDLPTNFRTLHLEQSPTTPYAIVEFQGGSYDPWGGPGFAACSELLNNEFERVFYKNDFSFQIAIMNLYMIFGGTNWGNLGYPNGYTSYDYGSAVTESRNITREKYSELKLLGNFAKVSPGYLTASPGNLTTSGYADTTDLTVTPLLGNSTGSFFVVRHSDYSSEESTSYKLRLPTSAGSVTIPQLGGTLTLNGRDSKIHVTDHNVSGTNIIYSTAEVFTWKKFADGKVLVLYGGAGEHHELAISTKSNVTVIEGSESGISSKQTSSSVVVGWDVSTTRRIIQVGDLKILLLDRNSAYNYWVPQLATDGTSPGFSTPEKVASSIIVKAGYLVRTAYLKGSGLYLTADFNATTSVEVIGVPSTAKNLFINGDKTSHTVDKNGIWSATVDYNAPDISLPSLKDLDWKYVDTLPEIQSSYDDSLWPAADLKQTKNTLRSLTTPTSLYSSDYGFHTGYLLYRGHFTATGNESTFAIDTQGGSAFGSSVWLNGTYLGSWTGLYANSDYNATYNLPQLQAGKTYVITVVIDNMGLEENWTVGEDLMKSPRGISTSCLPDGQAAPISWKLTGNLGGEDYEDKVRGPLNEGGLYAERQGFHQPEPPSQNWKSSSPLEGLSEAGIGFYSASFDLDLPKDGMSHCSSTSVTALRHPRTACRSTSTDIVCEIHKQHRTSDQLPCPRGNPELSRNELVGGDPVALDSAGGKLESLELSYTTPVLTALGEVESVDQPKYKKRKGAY

[12] = Inhibitory activity towards Alpha-glucosidase from Yeast (maltase); design: species or system Saccharomyces cerevisiae
[13] = test system: Saccharomyces cerevisiae; test: Percentage inhibition of Alpha-glucosidase from Yeast (maltase) at 1 mM
[14] = biological target: Glucoamylase (Aspergillus niger) (UniProt P69328); test: Percentage inhibition of Alpha-glucosidase from Aspergillus niger (amyloglucosidase) at 1 mM; No inhibition
[15] = biological target: Beta-glucosidase A (Caldicellulosiruptor saccharolyticus) (UniProt P10482); test: Percentage inhibition of Beta-Glucosidase from Caldocellum saccharol. at 1 mM
[16] = biological target: T5, Beta-glucosidase A (Caldicellulosiruptor saccharolyticus, UniProt P10482); test: Inhibitory activity towards Beta-Glucosidase from Caldocellum saccharol
[17] = biological target: T2, Glucoamylase 1 (Rhizopus oryzae); test: Percentage inhibition of Alpha-glucosidase from Rhizopus mold (amyloglucosidase) at 1 mM concentration; No inhibition; conditions: Rhizopus arrhizus
[18] = biological target: T5, Beta-glucosidase A; test: Inhibitory activity towards Beta-Glucosidase from Caldocellum saccharol.
[19] = Percentage inhibition of Beta-galactosidase from Aspergillus oryzae at 1 mM; No inhibition
[20] = biological target: T3, Beta-galactosidase (Bos taurus); test: Percentage inhibition of Beta-galactosidase from Bovine liver at 1 mM concentration; No inhibition
[21] = biological target: Beta-galactosidase (Escherichia coli K-12) (UniProt P00722); test: Percentage inhibition of Beta-galactosidase from Escherichia coli at 1 mM concentration; No inhibition
[22] = Inhibitory activity towards Alpha-glucosidase from Baker yeast (isomaltase); design: species or system Saccharomyces cerevisiae
[23] = test system: Alpha-mannosidase (Prunus dulcis); test: Percentage inhibition of Alpha-mannosidase from Almond at 1 mM
[24] = biological target: T1, Alpha-glucosidase (Oryza sativa Japonica Group); test: Percentage inhibition of Alpha-glucosidase from Rice (maltase) at 1 mM
[25] = biological target: T3, Beta-galactosidase (Bos taurus); test: Percentage inhibition of Beta-galactosidase from Bovine liver at 1 mM; No inhibition
[26] = Percentage inhibition of Beta-galactosidase from Jack bean at 1 mM concentration; conditions: Canavalia ensiformis
[27] = biological target: T6, Beta-galactosidase (Bos taurus, UniProt Q58D55); test: Inhibitory activity towards Beta-galactosidase from Bovine liver
T6 sequence (Q58D55 whole entry): T3 sequence (whole entry)

[28] = biological target: T7, Beta-galactosidase (Aspergillus niger, UniProt P29853); test: Inhibitory activity towards Beta-galactosidase from Aspergillus niger
T7 sequence (P29853 whole entry): T4 sequence (whole entry)

Chain of Beta-glucosidase A (Caldicellulosiruptor saccharolyticus) (P10482 whole entry): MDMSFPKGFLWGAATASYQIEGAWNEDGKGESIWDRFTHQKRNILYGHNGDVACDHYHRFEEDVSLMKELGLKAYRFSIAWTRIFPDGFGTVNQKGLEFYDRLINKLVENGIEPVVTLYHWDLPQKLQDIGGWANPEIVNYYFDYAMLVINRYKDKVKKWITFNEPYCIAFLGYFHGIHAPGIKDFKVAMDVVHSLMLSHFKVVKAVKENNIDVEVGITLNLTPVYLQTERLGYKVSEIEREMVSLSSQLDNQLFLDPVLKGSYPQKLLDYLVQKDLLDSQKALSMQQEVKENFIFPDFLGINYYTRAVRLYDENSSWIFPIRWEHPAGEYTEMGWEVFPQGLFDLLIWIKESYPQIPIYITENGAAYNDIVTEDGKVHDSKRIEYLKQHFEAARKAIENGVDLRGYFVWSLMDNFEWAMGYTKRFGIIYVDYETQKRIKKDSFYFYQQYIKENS
T5 sequence (P10482 whole entry): as above
Chain of Beta-galactosidase (Escherichia coli K-12) (P00722 whole entry): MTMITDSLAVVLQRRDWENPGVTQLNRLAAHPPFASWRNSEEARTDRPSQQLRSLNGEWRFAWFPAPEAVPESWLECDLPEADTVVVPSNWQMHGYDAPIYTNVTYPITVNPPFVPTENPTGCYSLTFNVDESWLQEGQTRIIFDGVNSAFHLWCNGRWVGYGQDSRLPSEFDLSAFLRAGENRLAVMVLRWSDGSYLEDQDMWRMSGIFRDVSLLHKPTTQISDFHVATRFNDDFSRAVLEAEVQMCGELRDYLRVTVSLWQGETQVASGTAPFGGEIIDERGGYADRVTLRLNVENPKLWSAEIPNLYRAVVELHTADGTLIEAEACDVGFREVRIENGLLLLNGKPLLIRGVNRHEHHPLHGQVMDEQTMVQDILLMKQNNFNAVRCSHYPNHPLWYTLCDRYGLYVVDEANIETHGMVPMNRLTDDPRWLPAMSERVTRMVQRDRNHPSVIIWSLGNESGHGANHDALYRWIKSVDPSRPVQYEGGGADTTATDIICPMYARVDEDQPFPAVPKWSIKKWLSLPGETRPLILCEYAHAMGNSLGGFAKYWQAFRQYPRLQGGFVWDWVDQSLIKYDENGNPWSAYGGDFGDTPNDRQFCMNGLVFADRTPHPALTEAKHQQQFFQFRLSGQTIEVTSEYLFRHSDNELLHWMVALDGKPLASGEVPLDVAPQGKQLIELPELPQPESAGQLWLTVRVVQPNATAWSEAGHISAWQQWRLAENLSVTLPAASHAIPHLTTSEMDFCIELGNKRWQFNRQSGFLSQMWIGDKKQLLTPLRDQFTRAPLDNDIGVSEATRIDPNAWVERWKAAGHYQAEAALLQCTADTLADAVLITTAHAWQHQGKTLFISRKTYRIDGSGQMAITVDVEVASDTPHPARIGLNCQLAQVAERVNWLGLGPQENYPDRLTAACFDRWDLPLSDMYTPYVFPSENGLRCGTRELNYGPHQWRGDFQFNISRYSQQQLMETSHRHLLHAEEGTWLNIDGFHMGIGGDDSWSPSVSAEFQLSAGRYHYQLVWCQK
Chain of Glucoamylase (Aspergillus niger) (P69328 whole entry): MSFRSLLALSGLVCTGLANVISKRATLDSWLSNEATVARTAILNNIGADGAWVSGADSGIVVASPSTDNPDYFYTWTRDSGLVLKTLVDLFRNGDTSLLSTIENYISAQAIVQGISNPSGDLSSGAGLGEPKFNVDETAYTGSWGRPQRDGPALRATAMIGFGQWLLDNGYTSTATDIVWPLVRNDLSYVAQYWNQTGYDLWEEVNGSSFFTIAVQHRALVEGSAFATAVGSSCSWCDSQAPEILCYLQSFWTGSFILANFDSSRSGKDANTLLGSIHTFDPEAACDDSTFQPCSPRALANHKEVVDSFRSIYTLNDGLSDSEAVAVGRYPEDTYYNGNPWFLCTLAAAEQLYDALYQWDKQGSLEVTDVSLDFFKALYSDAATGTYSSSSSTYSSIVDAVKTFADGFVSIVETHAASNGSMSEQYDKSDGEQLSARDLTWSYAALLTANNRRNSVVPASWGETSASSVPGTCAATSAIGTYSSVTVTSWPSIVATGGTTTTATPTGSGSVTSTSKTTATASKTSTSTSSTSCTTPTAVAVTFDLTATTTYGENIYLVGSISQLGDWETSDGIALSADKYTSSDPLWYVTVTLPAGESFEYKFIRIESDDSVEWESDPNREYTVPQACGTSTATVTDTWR

inhibition [1]	inhibition [2]	inhibition [3]	inhibition [4]	inhibition [6]	inhibition [7]	IC50 [8]	inhibition [9]	inhibition [10]	inhibition [11]	IC50 [12]	inhibition [13]	inhibition [14]	inhibition [15]	Ki [16]	inhibition [17]	IC50 [18]	inhibition [19]	inhibition [20]	inhibition [23]	also measured	SMILES
inactive	32%	inactive	24%	47%	41%	790 µM	53%	25%	39%	–	–	–	–	–	–	–	–	–	–	inhibition [5]: inactive	O[C@@H]1CNC[C@@H]1O
inactive	94%	–	–	–	–	–	–	–	39%	280 µM	66%	inactive	75%	60 µM	inactive	250 µM	inactive	inactive	29%	inhibition [21]: inactive; IC50 [22]: 65 µM; Ki [22]: 45 µM	OC1CNC(CNCc2ccco2)C1O (configuration not stated)
–	–	–	–	–	92%	–	60%	–	24%	–	84%	inactive	93%	–	inactive	–	–	–	51%	inhibition [24]: 98%; inhibition [25]: inactive; inhibition [26]: 76%	NCC1NCC(O)C1O (configuration not stated)
inactive	46%	–	–	–	25%	–	–	84%	29%	–	28%	inactive	72%	–	inactive	320 µM	inactive	–	48%	IC50 [27]: 140 µM; Ki [27]: 21 µM	CC(NCC1NCC(O)C1O)C(O)(c1ccccc1)c1ccccc1 (configuration not stated)
inactive	90%	–	–	–	49%	–	24%	–	41%	610 µM	55%	inactive	76%	120 µM	inactive	290 µM	–	inactive	59%	IC50 [22]: 120 µM; Ki [22]: 40 µM	OC1CNC(CNCn2ccnc2)C1O (configuration not stated)
inactive	28%	inactive	21%	40%	48%	75 µM	80%	32%	91%	–	–	–	90%	–	–	–	–	–	–	IC50 [28]: 140 µM; Ki [28]: 200 µM; Ki [8]: 75 µM	OC(O)CC1NCC(O)C1O (configuration not stated)
